Results on 4 compounds are retold here after patent US10787423B2, “Piperazine and piperidine derivatives, their synthesis and use thereof in inhibiting VDAC oligomerization, apoptosis and mitochondria dysfunction” (THE NATIONAL INSTITUTE FOR BIOTECHNOLOGY IN THE NEGEV LTD., priority 2015, dated 2020).

Where two headings read alike, the source gives them in different places.

One data set relates to SHSY5Y cells. Nature of the data set: 6-hydroxydopamine-induced cell toxicity, XTT cell viability. The note with it: Homo sapiens, SH-SY5Y, 24 h, read-out: concentration giving 50% decrease in cell survival. In kind it is cell-based. The method, then: (§1) SHSY5Y (obtained from ATCC) were grown at 37° C. under an atmosphere of 95% air and 5% CO2 in DMEM medium supplemented with 10% fetal bovine serum, 2 mM L-glutamine, 1000 U/ml penicillin, and 1 mg/ml streptomycin until 60-70% of confluence. Further, the cells were incubated with increasing concentrations of 6-hydroxydopamine. After 24 hours, and cells viability was assayed using the XTT (2,3-bis-(2-methoxy-4-nitro-5-sulfophenyl)-2H-tetrazolium-5-carboxanilide) method, according to the supplier instructions. […] The 50% decrease in cell survival was obtained at about 50 μM of 6-hydroxydopamine.
(§2) Cell viability as assayed following 24 h incubation with different concentrations of 6-hydroxydopamine in the absence (closed squares (▪)) or in the presence of VBIT-12 (15 μM, closed circles (●)) is shown.
(§3) Similarly, cells that were incubated with increasing concentrations of VBIT-12 in presence of either 30 or 50 μM of 6-hydroxydopamine that decreased cell viability by […], respectively, remained viable after 24 hours of the incubation. Cells viability is charted in FIG. 24C versus the concentrations of VBIT-12. Closed squares (▪) indicate control group without 6-hydroxydopamine, open circles (◯) indicates cells' viability when exposed to 30 μM of the 6-hydroxydopamine, and closed circles (●) indicate cells viability at 50 μM of the 6-hydroxydopamine.
For orientation: Tetrazolium assays rely on reduction of a dye to a coloured formazan, in cell work by metabolically active cells.

Experiment in data set [1]: as above
The note with it: human, 24 h, read-out: decrease in cell viability. In kind it is cell-based. The method, then:
as §1, §2, §3

The target of the next data set is T1, purified VDAC1 (Rattus norvegicus, UniProt Q9Z2L0).
T1 construct: rat liver mitochondria (5 mg/ml) in 10 mM Tris-HCl, pH 7.2, were incubated with 2% LDAO; from tissue; host or cells: rat liver mitochondria
T1 sequence (Q9Z2L0 whole entry): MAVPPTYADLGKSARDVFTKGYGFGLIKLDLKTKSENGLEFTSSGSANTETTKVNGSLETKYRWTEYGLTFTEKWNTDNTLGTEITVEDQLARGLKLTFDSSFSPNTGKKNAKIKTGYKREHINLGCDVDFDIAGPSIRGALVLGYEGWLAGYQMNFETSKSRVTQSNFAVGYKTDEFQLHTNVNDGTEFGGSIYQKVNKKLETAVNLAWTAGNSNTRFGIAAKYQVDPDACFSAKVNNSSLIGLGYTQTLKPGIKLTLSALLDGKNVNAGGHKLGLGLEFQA
Description: Microscale thermophoresis (MST) binding to purified VDAC1. On the technique in general: In MST a laser heats a spot of the sample, and binding alters the fluorescence response.

In another data set the test system is HEK-293 cells. Nature of the data set: Selenite-induced apoptosis, annexin V-FITC/PI staining and FACS, HEK-293 cells. In kind it is cell-based. The note with it: Homo sapiens, HEK293, compound 2 h then selenite 15 μM 4 h, means±SD (n=3). The method, then: The ability of the compounds of general Formulae (I), (Ia), (Ib), (Ic), (Id), (II) and (IIa) to inhibit apoptosis may be analyzed by annexin-V/propidium iodide (PI) staining and flow cytometry.
(§4) Cells, e.g. HeLa cells (2×10^5), untreated or treated with apoptosis-inducing reagents, were analyzed for apoptotic cell death using PI, annexin V-FITC and flow cytometer analysis. Cells were collected (1500×g for 10 min), washed, and resuspended in 200 μl binding buffer (10 mM HEPES/NaOH, pH 7.4, 140 mM NaCl, and 2.5 mM CaCl2). Annexin V-FITC was added according to the recommended Protocol (Enzo Life Sciences, Switzerland), and the cells were incubated in the dark for 15 min. Cells were then washed with binding buffer and resuspended in 200 μl binding buffer, to which PI was added immediately before flow cytometry analysis. At least 10,000 events were collected, recorded on a dot plot, and analyzed by the FACSCalibur™ flow cytometer software (BD Biosciences, Franklin Lakes, N.J.).
b. Additionally, the inhibition of selenite-induced apoptosis by the compounds as analyzed using annexin V-FITC/PI staining and FACS, presented in the FIG. 15c.
(§5) d. IC50 values of the tested compounds were derived from the obtained data. The results shown correspond to means±SD (n=3).

Data set [2] has as its system Cyto c release from mitochondria. Nature of the data set: Selenite-induced Cytochrome c release from mitochondria in HEK-293 cells. The note with it: Homo sapiens, HEK293, compound 2 h then selenite 15 μM 4 h, means±SD (n=3). The data set is classed as cell-based. The method, then: One of the ways cell apoptosis is activated is by release of Cytochrome c (Cyto c) from the mitochondria into cytosol. […] Cyto c released to the cytosol may be analyzed by immunoblotting using Cyto c-specific antibodies.
Cells treated with apoptosis inducers in the absence or presence of the tested compounds were harvested, washed twice with PBS, pH 7.4 and gently resuspended at 6 mg/ml in ice-cold buffer (100 mM KCl, 2.5 mM MgCl2, 250 mM sucrose, 20 mM HEPES/KOH pH 7.5, 0.2 mM EDTA, 1 mM dithiothreitol, 1 μg/ml leupeptin, […] and 0.1 mM PMSF) containing 0.025% digitonin and incubated for 10 min on ice. Samples were centrifuged at 10,000×g (relative centrifugal force—RCF) at 4° C. for 5 min to obtain supernatants (cytosolic extracts free of mitochondria) and pellet (fraction that contains mitochondria). Cytochrome c released to the cytosol was analyzed by immunoblotting using Cytochrome c-specific antibodies. Anti-VDAC1 and anti-GAPDH antibodies were used to verify that the cytosolic extracts are mitochondria-free.
c. Cytochrome c (Cyto c) release was determined as described above in Methods (Cytochrome c release from mitochondria). Briefly, to assess Cyto c release, cells were incubated on ice for 10 min with 0.025% digitonin, centrifuged, and the pellet (mitochondria—Mito) and supernatants (cytosol—Cytos) were subjected to SDS-PAGE and immunoblotting, using anti-Cyto c, antibodies. Anti-VDAC1 and anti-GAPDH antibodies were used to verify that the cytosolic extracts are mitochondria-free. The results of Cyto c release from the mitochondria as induced by selenite are presented as immunoblots, with the cytosolic and mitochondrial fractions confirmed by immunoblotting of GAPDH (glyceraldehyde-3-phosphate dehydrogenase) and VDAC1, respectively, in the FIG. 15d. The data are presented as percent inhibition. The results shown correspond to means±SD (n=3). The closed circle (●) indicates VBIT-4 (compound of Formula 1), the open circle (◯) indicates compound of Formula 10 (AKOS-022), and an open square (□) indicates VBIT-3 (compound of Formula 2).
d. […]

The next data set deals with VDAC1 (Homo sapiens, UniProt P21796). Nature of the data set: Selenite-induced VDAC1 oligomerization by EGS cross-linking and immunoblot in HEK-293 cells (Method B). The data set is classed as cell-based. More on the design: endogenous in cells; host or cells: HEK-293. The method, then: Appropriate test cells (2.5-3 mg/ml) in PBS, were harvested after the treatment and incubated with the cross-linking reagent EGS at a ratio of 100-300 μM for sample of 2-3 mg protein/ml concentration (pH 8.3) for 15 minutes. Protein concentration was determined according to Lowry assay. Samples (60-80 μg protein) were subjected to SDS-PAGE by a standard technique and immunoblotting was performed using anti-VDAC1 antibodies. Gels were electro-transferred onto nitrocellulose membranes for immuno-staining. The membranes were incubated with a blocking solution containing 5% non-fat dry milk and 0.1% Tween-20 in Tris-buffered saline, followed by incubation with monoclonal anti-VDAC1, anti-Cytochrome c, anti-AIF or anti-actin antibodies. Membranes were then incubated with HRP-conjugated anti-mouse or anti-rabbit IgG (1:10,000), serving as secondary antibodies. Antibody labeling was detected by chemiluminescence. To detect VDAC1 oligomers, membranes were treated with 0.1 M glycine, pH 2.0, prior to immunoblotting and washed several times with 0.1% Tween-20 in Tris-buffered saline. Quantitative analysis of immuno-reactive VDAC1 dimer, trimer and multimer bands was performed using FUSION-FX (Vilber Lourmat, France).
Chain of VDAC1 (P21796 whole entry): as the sequence (Q9Z2L0 whole entry) above, with N55T, V129M, S160A, V227I counted along it
The closed circle (●) indicates VBIT-4 (compound of Formula 1), the open circle (◯) indicates compound of Formula 10, and an open square (□) indicates VBIT-3 (compound of Formula 2).
as §5
In general terms: In western blotting, separated proteins are transferred to a membrane and probed.

A short description of data set [3]: Brain penetration after oral gavage, HPLC/MS of brain extracts. The data set is classed as in vivo, C57BL/6 mice. Conditions: for concentration at 12 h / concentration at 24 h: C57BL/6, mouse, brain, oral, 50 mg/kg, mouse, read-out: Compounds in brain extract. On the procedure: C57BL/6 mice ([…]) were used. The animals received treatments with either free compounds of Formulae 1 and 10, or encapsulated compounds, prepared according to the Examples 16 and 17. Doses as indicated in the Table 4 below were administered in phosphate-buffered saline (PBS) through an oral gavage. After 12 hours and 24 hours, randomly selected mice from each group were sacrificed, their brains collected and stored in −80° C. The concentrations of the compounds in the tissues were determined by HPLC/MS analysis.
Tissue samples were homogenized in phosphate-buffered saline solution, then diluted with acetonitrile to 50% v/v, centrifuged at 10,000 g for 10 minutes, and supernatants were analyzed. The compounds concentrations in the brain extracts were determined from calibration curves. The results were the averaged from 2 mice for each treatment group/time point.

A short description of data set [4]: IC50 for several activities / effective range (activity not specified). The note with it: quoted for comparison with brain levels.
For a further data set, the system named is HeLa cells. Nature of the data set: Selenite-induced cell death in HeLa cells, PI staining and flow cytometry. The note with it: 22 h with selenite 8 μM and increasing concentrations. In kind it is cell-based. The method, then: as §4
HeLa cells were incubated with varying concentrations (2-20 μM) of racemic compound of Formula 1 (VBIT-4) and of the enantiomers of compound of Formula 1 (VBIT-4-1 and VBIT-4-2) for 1 hour, and then with or without selenite (25 μM, 3 hours). Cells were harvested and assayed for apoptotic cell death, using PI staining and FACS analysis. The results shown in the FIG. 14b correspond to means±SD (n=3).
Cells (2.5 mg/ml) were washed with and resuspended in PBS, pH 8.3 and incubated with membrane-permeable cross-linker EGS (250 μM) at 30° C. for 15 min and then subjected to SDS-PAGE and immunoblotting using anti-VDAC1 antibodies. Several anti-VDAC1 antibody-labeled protein bands were obtained upon exposure to the apoptosis stimuli that are correspond to VDAC1 dimers, trimers, tetramers and multimers. Cell death as induced by selenite and inhibited by the compound of Formula 3 (VBIT-12) or compound of Formula 11 (DIV00781) is shown (FIG. 21B), with closed circles corresponding to the compound of Formula 3 and open circles corresponding to the compound of Formula 11. Cell death was analyzed using propidium iodide (PI) staining and flow cytometry.

The mark [5] stands for this setting: 50 mg/kg in PLGA nanoparticles, oral gavage.
Where [6] appears, read: 50 mg/kg oral gavage, free compound.

Description for purified VDAC1: To obtain quantitative parameters of this interaction and derive a dissociation constant, e.g. a microscale thermophoresis (MST) interaction assay may be performed. In this manner, dissociation values are derived from the curves showing the affinity of the compounds of the invention to VDAC.
Briefly, rat liver mitochondria (5 mg/ml) in 10 mM Tris-HCl, pH 7.2, were incubated with 2% LDAO at 0° C. for 20 min, followed by centrifugation (30 min, 14,000 g) and the obtained supernatant was loaded onto a dry celite:hydroxyapatite (2:1) column. VDAC1 was eluted with a solution containing 2% LDAO, 10 mM Tris-HCl, pH 7.2, 50 mM NaCl, and 20 to 22 mM NaH2PO4, with VDAC1 detection by Coomassie blue staining. The VDAC1-containing fractions were dialyzed against 10 mM Tris-HCl, pH 7.2, and subjected to a second chromatography step on a carboxymethyl-cellulose (CMC) column from which VDAC1 was eluted with a solution containing 10 mM Tris-HCl, pH 7.2, 0.1% LDAO and 500 mM NaCl, detected as above. The VDAC1-containing fractions were collected and used for VDAC1 channel conductance and MST assays.
MST analysis was performed using a NanoTemper Monolith NT.115 apparatus. […]
Purified VDAC1 (133 nM), labeled using the NanoTemper fluorescent protein-labeling Kit BLUE (Nano Temper technologies, Munich, Germany), according to the manufactory instructions, was incubated with increasing concentrations of the following tested compounds: compound of Formula 10 (AKOS-022), compound of Formula 2 (VBIT-3), or racemic compound of Formula 1 (VBIT-4). After 20 min of incubation, the samples (3-5 μL) were loaded into MST-grade glass capillaries (Monolith NT Capillaries), and the thermophoresis process was measured using the Monolith-NT115 apparatus.
Fmax and Fmin represent the maximal and minimal fluorescence, respectively and F the fluorescence measured in the presence of the tested compound.
VDAC1 binding affinities of tested compounds were calculated from the MST measurements.

In the case of `NCCc1cc(O)c(O)cc1O` [6-hydroxydopamine, reference compound], in the data set on SHSY5Y cells, the 6-hydroxydopamine concentration giving 50% decrease in cell survival was around 50 µM. In addition, the cytotoxicity at 24 h, 30 μM in data set [1] (30 μM 6-hydroxydopamine) is 90%. Besides, the cytotoxicity at 24 h, 50 μM in data set [1] (50 μM 6-hydroxydopamine) is 95%.
With `O=C1CC(N2CCN(c3ccc(OC(F)(F)F)cc3)CC2)C(=O)N1c1ccc(Cl)cc1` (stereo not drawn) [Formula 2, 1-(4-chlorophenyl)-3-(4-(4-(trifluoromethoxy)phenyl)piperazin-1-yl)pyrrolidine-2,5-dione], on purified VDAC1 (MST, purified VDAC1 133 nM, 20 min incubation, means±SD (n=3), read-out: VDAC1 binding affinities), the Kd came to 31.3 ± 1.7 µM. Besides, the IC50 (as a rule, the midpoint of a concentration-inhibition curve) with HEK-293 cells is 7.5 ± 0.27 µM; in data set [2], 6.6 ± 1.03 µM; at VDAC1 (HEK-293 cells, compound 2 h then selenite 15 μM 4 h, means±SD (n=3), read-out: VDAC1 oligomerization IC50), 8.8 ± 0.56 µM.
Take `O=C1CC(N2CCC(Nc3ccc(OC(F)(F)F)cc3)CC2)C(=O)N1c1ccc(Cl)cc1` (stereo not drawn) [Formula 10]: the Kd on purified VDAC1 worked out at 15.4 ± 2.9 µM. For the same compound, the half-maximal inhibitory concentration (IC50) in the data set on HEK-293 cells amounted to 3.4 ± 0.2 µM; in [2], 3.6 ± 0.4 µM; in data set [4], 1 µM; at VDAC1, 3.3 ± 0.18 µM. Besides, the concentration at 12 h in data set [3] (setting [5]) is 4.36 ± 0.148 µM; in data set [3] (setting [6]), 4.2 ± 0.714 µM. Further, the concentration at 24 h in data set [3] (setting [5]) is 2.8 ± 1.19 µM; in data set [3] (setting [6]), 1.24 ± 0.23 µM. Also, the brain penetration result in [3] (given orally, in solution or encapsulated in PLGA nano-particles) was “reached the brain”.
As for `O=C(O)CN1CN(c2ccccc2)C2(CCN(Cc3cccc4ccccc34)CC2)C1=O` [Formula 11], the “cell death as induced by selenite” value in the data set on HeLa cells is on record as “inhibited”.
